# Measurements as given in patent US11274114B2, “Modified mito-metformin compounds and methods of synthesis and use thereof” (THE MEDICAL COLLEGE OF WISCONSIN, INC., priority 2014, dated 2022).
# pIC50: −log10 of the molar value. “And” between values parts separate entries of the source, which are not always exact repeats. Identical values can stand only once.
# Experiments:
# MiaPaCa-2 cells [1] = test: Oxygen consumption rate in intact cells, Seahorse XF96; assay type: cell-based, human; settings: for concentration that inhibited OCR: intact MiaPaCa-2, after 24 h treatment and washout; for OCR inhibition: immediately after addition
# Protocol: (§1) Respiratory enzyme activity in intact and permeabilized cells. The mitochondrial function in intact and permeabilized pancreatic cancer cells was measured using a Seahorse XF96 Extracellular Flux Analyzer (Seahorse Bioscience, North Billerica, Mass., USA). Unless specified otherwise, assays in intact cells were performed as previously described. Measurement of mitochondrial respiratory complexes in permeabilized cells was performed according to the manufacturer's instructions (Seahorse Bioscience). Briefly, intact cells were permeabilized using 1 nM Plasma Membrane Permeabilizer (PMP, Seahorse Bioscience) immediately before oxygen consumption rate (OCR) measurement by XF96. The oxygen consumption derived from mitochondrial complex I or complex II activity was measured by providing different substrates to mitochondria, e.g., pyruvate/malate for complex I and succinate for complex II activity. Rotenone, malonate and antimycin A were used as specific inhibitors of mitochondrial complex I, II and III activities, respectively.
# Effects of Met and Mito-Met analogs on mitochondrial bioenergetics in MiaPaCa-2 cells. The oxygen consumption rate (OCR) and the extracellular acidification rate (ECAR) were measured as a readout of mitochondrial function and glycolysis using a Seahorse Bioscience XF96 extracellular flux analyzer. We compared the immediate OCR changes in response to different concentrations (e.g., IC50 or higher values determined by clonogenic assay) of Met, Mito-Met2, Mito-Met6, Mito-Met10, and phenformin (FIG. 13A).
# MiaPaCa-2 cells [2] = test: Radiosensitization (X-radiation, clonogenic survival); assay type: cell-based, human; settings: for PDAC radiosensitivity: 24 h pretreatment before X-radiation
# Protocol: MiaPaCa2 cells (1000 cells/well) were cultured in quadruplicate overnight in 96-well plates and changed to fresh medium.
# (§2) Radiation experiments. […] The cells were then treated with X-radiation at a dose of 0, 2, 4, and 6 Gy. The control cells were treated with the same concentration of vehicle (0.1% DMSO) where appropriate. After irradiation, cells were suspended and seeded at various densities (100-8,000 cells per well) in 6-well plates for clonogenic assay as described above. The plates were kept within the incubator and media changed every 3-4 days for 2 weeks. Wells with 10-50 sufficiently large clones were chosen for calculating the cell survival fractions.
# mitochondrial complex I [3] = target: T1, mitochondrial complex I (Homo sapiens, UniProt O75251+O75306+P03886); test: Complex I oxygen consumption (pyruvate/malate-driven OCR) in permeabilized cells, Seahorse XF96; assay type: cell-based; design: IC50, complex I oxygen consumption; other: permeabilized MiaPaCa-2, added acutely; settings: permeabilized MiaPaCa-2, added acutely
# Protocol: as §1
# (§3) The oxygen consumption rate was measured using the permeabilized MiaPaCa-2 cells in MAS buffer supplemented with pyruvate. The use of permeabilized cells avoids differences in cellular uptake of compounds. […] We tested the effect of pretreating cells with Mito-Met10 or Met using the permeabilized model. […]
# Target sequence in this assay (P03886 whole entry): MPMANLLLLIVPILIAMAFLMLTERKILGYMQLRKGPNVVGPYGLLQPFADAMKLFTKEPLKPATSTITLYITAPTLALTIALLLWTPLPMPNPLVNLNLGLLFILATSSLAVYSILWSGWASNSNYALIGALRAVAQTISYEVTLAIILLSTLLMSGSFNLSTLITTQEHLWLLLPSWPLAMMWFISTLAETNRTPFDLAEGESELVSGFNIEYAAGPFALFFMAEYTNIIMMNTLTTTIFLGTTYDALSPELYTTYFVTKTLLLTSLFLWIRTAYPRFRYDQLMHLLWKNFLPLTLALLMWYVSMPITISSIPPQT
# Target sequence in this assay (O75251 39-213): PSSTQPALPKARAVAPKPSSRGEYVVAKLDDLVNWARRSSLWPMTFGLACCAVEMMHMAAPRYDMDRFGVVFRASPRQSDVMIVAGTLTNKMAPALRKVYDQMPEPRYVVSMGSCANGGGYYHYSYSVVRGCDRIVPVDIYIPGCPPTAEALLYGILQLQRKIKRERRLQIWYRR
# Target sequence in this assay (O75306 34-463): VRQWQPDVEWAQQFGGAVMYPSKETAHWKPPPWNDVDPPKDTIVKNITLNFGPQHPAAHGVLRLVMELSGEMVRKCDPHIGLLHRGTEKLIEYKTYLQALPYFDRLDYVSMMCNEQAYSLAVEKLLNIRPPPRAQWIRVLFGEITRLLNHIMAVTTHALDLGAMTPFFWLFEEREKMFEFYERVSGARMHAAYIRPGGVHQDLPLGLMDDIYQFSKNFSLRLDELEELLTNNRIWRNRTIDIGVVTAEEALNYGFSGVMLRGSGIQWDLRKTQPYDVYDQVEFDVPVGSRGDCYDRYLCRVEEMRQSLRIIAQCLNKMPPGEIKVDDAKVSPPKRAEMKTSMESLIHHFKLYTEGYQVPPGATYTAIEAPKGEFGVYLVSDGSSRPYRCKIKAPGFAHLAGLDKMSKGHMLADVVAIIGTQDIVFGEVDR
# HaCaT cells = test: IncuCyte cell proliferation in nonmalignant cells; assay type: cell-based; settings: HaCaT keratinocytes
# Protocol: (§4) IncuCyte Analyzer-real time measurement of cell proliferation. The cell proliferation was measured using a label-free, noninvasive cellular confluence assay by IncuCyte Live-Cell Imaging Systems (Essen Bioscience, Ann Arbor, Mich., USA; IncuCyte FLR). This system enables collection of live cell images at 2 h intervals over several days. The IncuCyte Analyzer provides real-time cellular confluence data based on segmentation of high-definition phase-contrast images. The cell proliferation is expressed as an increase in percentage of cell confluence.
# MCF-10A cells [4] = test: IncuCyte cell proliferation in nonmalignant cells; assay type: cell-based; settings: MCF-10A breast epithelial cells
# Protocol: as §4
# MiaPaCa-2 cells [5] = test: Clonogenic assay (colony formation, survival fraction); assay type: cell-based, human; settings: for colony formation: 24 h; for pIC50: Homo sapiens, MIA PaCa-2, 24 h, read-out: IC50, colony formation / survival fraction
# Protocol: Clonogenic assay. […] The plates were kept within the incubator and media changed every 3-4 days until the control cells formed sufficiently large clones. The cell survival fractions were calculated as previously described.
# MiaPaCa-2 cells [6] = test: IncuCyte real-time cell proliferation (cell confluence); assay type: cell-based, human
# Protocol: Cell proliferation was measured using a label-free, non-invasive cellular confluence assay employing the IncuCyte™ Live-Cell Imaging Analyzer (Essen Bioscience). This system provides real-time cellular confluence data based on segmentation of high definition phase contrast images. MiaPaCa2 (1,000 cells/well) were seeded overnight on a 96-well plate, placed in an XL-3 incubation chamber maintained at 37 C. and cells photographed and confluence calculated every 2 hr by IncuCyte software. MiaPaCa2 cells were treated with Met (1 and 2 mM) or Mito-Met-C10 (1-2 μM).
# as §4
# [7] = Tissue accumulation in FC1242-luc orthotopic mice; assay type: in vivo; settings: 1 mg/kg daily for 2 weeks, tissues harvested 3 days after last treatment
# Protocol: FIG. 19. Tissue accumulation of Mito-Met in in vivo FC1242-luc orthotopic mouse model. FC1242-luc orthotopic mice treated with Mito-Met10 (1 mg/kg) daily for 2 weeks. Tissue harvesting and extractions were performed 3 days after the last treatment. Quantitative data on concentrations of Mito-Met after normalization to tissue wet weight are represented as mean±SD, n=5.
# MiaPaCa-2 cells [8] = test: Sytox Green cytotoxicity assay; assay type: cell-based; settings: MiaPaCa-2, 24 h, 100 μM
# Protocol: Cytotoxicity assay. To determine the cytotoxicity of Mito-Met analogs and other TPP^+-conjugated to a long chain aliphatic hydrocarbon, we used the Sytox assay as described previously. MiaPaCa-2 cells were treated for 24 h, and dead cells were monitored in the presence of 200 nM Sytox Green (Invitrogen). The Sytox method labels the nuclei of dead cells yielding green fluorescence. Fluorescence intensities from the dead cells in 96-well plate were acquired in real time every 15 min after 4 h using a plate reader (BMG Labtech, Inc.) equipped with an atmosphere controller set at 37° C. and 5% CO2:95% air, using a fluorescence detection with 485 nm (excitation) and 535 nm (emission). To measure the total cell number, all of the samples in each treatment group were permeabilized by adding Triton X 100 (0.065%) in the presence of Sytox Green for 3 h, and maximal fluorescence intensities were taken as 100%. Data are represented as a percentage of dead cells after normalization to total cell number for each group.
# [9] = system: MiaPaCa-2 cell 3D spheroids; test: Three-dimensional spheroid growth in Matrigel; assay type: cell-based, human; settings: 0.5 μM, compared to Met 10,000 μM
# Protocol: Three-dimensional spheroid cell cultures of PDAC. MiaPaCa-2 cells (5,000) were seeded in 96-well plates containing Matrigel (Corning), used as scaffold. This typical 3D-cell culture system allows spheroids to form within the matrix. […] At days 3, 7, and 14 the wells were observed by bright-field microscopy and images acquired on a Nikon Eclipse Ti inverted microscope (Nikon instrument Inc., NY, USA). Spheroid-forming cells were counted using the Nikon NIS Elements imaging software (Nikon). Data are expressed as mean and SD of number of spheroids.
# AMPK = AMPK activation immunoblot (phospho-Thr-172 / total AMPK); assay type: cell-based, human; settings: MiaPaCa-2
# Protocol: In this example, the inventors have shown that the mito-met compounds of the present invention cause an increased AMPK activation in cancer cells. In preliminary experiments (FIG. 4), human MiaPaCa2 and murine FC1199 PDAC cells treated 30 min with 1 μM mito-met (MM), 1 mM Met, or the oligomycin positive control were lysed, and proteins size-separated on SDS-PAGE, transferred to PVDF, and probed with an antibody to phosphorylated AMPK Thr-172.
# Immunoblotting. MiaPaCa-2 PDAC cells (1×10^6) were plated to 80% confluency in 60 mm dishes and then serum-starved for 5 hours. […] Cells were stimulated with oligomycin as a positive control. After stimulation, cells were washed twice in cold PBS and lysed using a modified RIPA buffer. Lysates were normalized for protein concentration, size separated using reducing SDS-PAGE, electro-transferred to PVDF membranes (Millipore) and then probed using primary and horseradish peroxidase-conjugated secondary antibodies. Antibodies against total or phosphorylated 5′ AMP-activated protein kinase (AMPK) were purchased from Cell Signaling Technology (Danvers, Mass.) and used at the manufacturer's recommended dilutions. Proteins were visualized by chemiluminescence with auto-exposure and quantified by densitometric analysis using the FluorChem HD2 from Cell Biosciences (Santa Clara, Calif.).
# mitochondrial complex I [10] = target: T1, mitochondrial complex I; test: Complex I oxygen consumption (pyruvate/malate-driven OCR) in permeabilized cells, Seahorse XF96; assay type: cell-based; settings: 24 h treatment, then permeabilized
# Protocol: as §1, §3
# Target sequence in this assay (O75251 39-213): as the sequence (O75251 39-213) above
# Target sequence in this assay (O75306 34-463): as the sequence (O75306 34-463) above
# Target sequence in this assay (P03886 whole entry): as the sequence (P03886 whole entry) above
# FC1242-luc autografts = test: Orthotopic syngeneic FC1242-luc tumor growth, bioluminescence imaging and calipers; assay type: in vivo, C57BL/6 mice; settings: for in vivo tumor growth relative to Met: 1 mg/kg daily, intraperitoneal
# Source text: In vivo studies and bioluminescence imaging.
# MCF-10A cells [11] = test: Radiosensitization (X-radiation, clonogenic survival) in normal cells; assay type: cell-based; settings: 1 μM pretreatment
# Protocol: as §2
# MiaPaCa-2 cells [12] = system: MiaPaCa-2 cells
# Protocol: Cells were grown on 10 cm dishes and treated with the compounds for 24 h in full media.
# Next we investigated the relative uptake of different Mito-Met analogs (Mito-Met2, Mito-Met6, and Mito-Met10) and phenformin in MiaPaCa-2 cells (FIG. 12D). Cells were treated with respective Mito-Met analog (1 μM) for 1 h. Cells were lysed after washing and analyzed for Mito-Met analog by LC-MS.
# [13] = mouse
# Protocol: In an initial proof-of-concept experiment, syngeneic KPC cells expressing Firefly luciferase (FC1242-luc) were orthotopically implanted to the pancreas of C57BL/6 mice and tumor growth monitored using bioluminescence imaging (FIG. 15F). Mice orthotopically autografted with FC1242-luc cells were treated daily with 1 mg/kg or 150 mg/kg Met, or 1 mg/kg Mito-Met. […] Serum from these animals was collected, and hepatic and kidney toxicity tested using standard AST, ALT, AP, and BUN assays, respectively.
# [14] = intact MiaPaCa-2, immediately after addition
structure (smiles),measurement,setting,value
CN(C)C(=N)N=C(N)N [Metformin],concentration that dose-dependently decreased oxygen consumption,MiaPaCa-2 cells [1]; [14],1 to 10 mM
same,PDAC radiosensitivity,MiaPaCa-2 cells [2]; 1 mM,increased radio-sensitization
same,PDAC radiosensitivity,"MiaPaCa-2 cells [2]; 1 mM, listed as Met",increased radiosensitization
same,concentration that inhibited OCR,mitochondrial complex I [3],"3,000 μM"
same,cell proliferation (confluence) of nonmalignant cells,HaCaT cells,not significantly affected
same,cell proliferation (confluence) of nonmalignant cells,MCF-10A cells [4],not significantly affected
same,colony formation,MiaPaCa-2 cells [5]; 3 mM,Almost no colony formation
same,pIC50,MiaPaCa-2 cells [5],2.89
same,inhibition at 1000 µM,"MiaPaCa-2 cells [6]; Homo sapiens, MIA PaCa-2, 1,000 μM, read-out: inhibition of cell growth",80%
N=C(N)NC(=N)NCC[P+](c1ccccc1)(c1ccccc1)c1ccccc1.[Br-] [Mito-Met2],concentration that inhibited OCR,MiaPaCa-2 cells [1],25 µM
N=C(N)NC(=N)NCCCCCCCCCC[P+](c1ccccc1)(c1ccccc1)c1ccccc1.[Br-] [Mito-Met10],tissue accumulation,[7],"increased accumulation of this compound in liver, kidney, spleen, and tumor"
same,OCR inhibition,MiaPaCa-2 cells [1]; 1 μM,did not inhibit OCR
same,concentration that inhibited OCR,MiaPaCa-2 cells [1],1 µM
same,OCR inhibition,MiaPaCa-2 cells [1]; ≈10 μM,slight inhibition
same,fold lower concentration than Met for enhancement of radiation sensitivity,MiaPaCa-2 cells [2]; 1 μM versus Met 1 mM,"1,000 fold"
same,PDAC radiosensitivity,MiaPaCa-2 cells [2]; 1 μM,as effective as 1 mM Met
same,concentration that inhibited OCR,mitochondrial complex I [3],10 µM
same,cell death (Sytox Green),MiaPaCa-2 cells [8],no detectable cell death
same,cell proliferation (confluence) of nonmalignant cells,HaCaT cells,not significantly affected
same,cell proliferation (confluence) of nonmalignant cells,MCF-10A cells [4],not significantly affected
same,spheroid growth,[9],potently inhibited
same,"AMPK activation, fold more potent / lower concentration than metformin",AMPK,"~1,000 fold"
same,colony formation,MiaPaCa-2 cells [5]; 3 μM,Almost no colony formation
same,pIC50,MiaPaCa-2 cells [5],5.96
same,fold more effective than metformin in inhibiting MiaPaCa-2 cell proliferation,"MiaPaCa-2 cells [5]; clonogenic, 24 h treatment (FIG. 5)","~1,000 fold"
same,concentration giving significant decrease in OCR (complex I inhibition),mitochondrial complex I [10],0.75 µM
same,in vivo tumor growth relative to Met,FC1242-luc autografts,considerably more potent than Met
same,in vivo tumor growth relative to Met,FC1242-luc autografts; listed as Mito-Met,considerably more effective than Met
same,"therapeutic index, fold greater than Met",FC1242-luc autografts; in vivo experiments,"~1,000 fold"
same,radiosensitivity in normal cells,MCF-10A cells [11],no radiosensitivity was observed
same,"difference in intracellular uptake and retention, MiaPaCa-2 and MCF-10A cells",MiaPaCa-2 cells [12]; LC-MS (FIG. 14C),four-fold
same,"cellular uptake, fold higher than phenformin","MiaPaCa-2 cells [12]; MiaPaCa-2, 1 μM, 1 h",~100 fold
same,toxicity in vivo (hepatic and kidney),[13],neither Met nor the mitochondria-targeted analog Mito-Met elicited toxicity in vivo
same,fold more effective than Met in inhibiting PDAC proliferation,MiaPaCa-2 cells [6],"~1,000 fold and > 1,000 fold"
same,inhibition at 0.2 µM,"MiaPaCa-2 cells [6]; Homo sapiens, MIA PaCa-2, 0.2 μM, read-out: inhibition of cell growth",70%
same,inhibition at 1 µM,"MiaPaCa-2 cells [6]; Homo sapiens, MIA PaCa-2, 1 μM, read-out: inhibition of cell growth",> 90%
same,pIC50,"MiaPaCa-2 cells [6]; Homo sapiens, MIA PaCa-2, MiaPaCa-2, read-out: IC50 (FIG. 12B, cell confluence)",6.08
COC1=C(OC)C(=O)C(CCCCCCCCCC[P+](c2ccccc2)(c2ccccc2)c2ccccc2)=C(C)C1=O [Mito-Q],cell death (Sytox Green),MiaPaCa-2 cells [8],considerably more cytotoxic
CC1(C)CC(OCCCCC[P+](c2ccccc2)(c2ccccc2)c2ccccc2)CC(C)(C)N1[O].[Br-] [Mito-Tempol],cell death (Sytox Green),MiaPaCa-2 cells [8],considerably more cytotoxic
"[H]/N=C(/N)N/C(=N/[H])NCCc1ccccc1 [Phenformin, reference compound]",concentration inhibiting OCR to the same extent as Met,MiaPaCa-2 cells [1]; [14],ten-fold lower concentration
